{"source": "paper PMC3939009", "about": "“Thrombin inhibitory activity of some polyphenolic compounds” (Medicinal Chemistry Research, 2013)", "key": {"human thrombin [1]": {"target": "T1, human thrombin (Homo sapiens, UniProt P00734)", "experiment": "BIAcore (SPR) analysis of binding to immobilized thrombin", "parameters": "Thrombin, also known as an active plasma coagulation factor II; purchased Sigma-Aldrich Chemical Co. (St. Louis, MO, USA) T7009", "protocol": "The biosensor assays were performed using the BIAcore 1000 biosensor system. All biosensor analyses were performed with a phosphate-buffered saline (PBS), pH 7.4, as a running buffer. […] The immobilization of thrombin on a biosensor carboxylmethyl dextran surface was performed according to the BIA applications Handbook (BIAcore, [1994]). The process of protein immobilization was performed on a sensor chip CM5 surface by the positively charged functional groups of protein amino acids. The immobilization process consisted of four steps: preconcentration, activation, ligand immobilization and deactivation of the residual NHS esters. […] The temperature during the whole experiment was also constant and was set to 25.0 °C. […] Each of these solutions (10 μl) was injected into an empty sensor chip channel. […] The amount of injected activation mixture was modified, to regulate the amount of immobilized ligand. […] The conditions of the latter experiments were established by numerous pre-tests. The assessed parameters included: the buffer flow rate, the volume of analyte injection, the concentration of analytes, types and concentration of regenerators. […] For each injection of analyte solution, the volume used was 100 μl. After injection of analyte was completed, the dissociation step occurred and the level of the interaction ligand-analyte was measured. During dissociation, the particles non-covalently bound to the ligand were washed out from the working channel. […] To do these calculations, the formulas presented below were used: the association rate […]]; the dissociation rate -d[AB]/dt=kd·[AB]; the equilibrium constants: KA=[AB]/[A]·[B]=ka/kd KD=[A]·[B]/[AB]=kd/ka."}, "human thrombin [2]": {"target": "T1, human thrombin", "experiment": "Analysis of thrombin inhibition parameters (Lineweaver–Burk curves)", "assay_type": "biochemical", "parameters": "Thrombin, also known as an active plasma coagulation factor II; purchased Sigma-Aldrich Chemical Co. (St. Louis, MO, USA) T7009", "protocol": "Absorbance was monitored every 12 s for 10 min in a 96-well microplate reader. The velocity of reaction was expressed as the increase in product (pNA) over time (∆ μmol/min) using a computer program Mikcroplate Manager® 8 and the extinction coefficient of p-nitroaniline. […] Then, the Lineweaver–Burk ([1934]) curves for thrombin in the presence and in the absence of polyphenol compounds were plotted. The Lineweaver–Burk equation, which is a transformation of the Michaelis–Menten model, looks as follows: 1/V=Km/Vmax·1/[S]+1/Vmax"}, "[3]": {"parameters": "method as in Mozzicafreddo et al. ([2006])", "settings": "ref Mozzicafreddo et al. ([2006]); cited from earlier work"}, "human thrombin [4]": {"target": "T1, human thrombin", "experiment": "SDS-PAGE analysis of thrombin-induced cross-linked fibrin formation", "assay_type": "biochemical", "parameters": "Thrombin, also known as an active plasma coagulation factor II; purchased Sigma-Aldrich Chemical Co. (St. Louis, MO, USA) T7009; host or cells: purified from human plasma", "protocol": "In these preparations, to nine volumes of thrombin one volume of polyphenolic compounds was added (final thrombin concentration was 15.8 nM). All tested compounds were dissolved in 50 % DMSO to the initial concentration of 10 mM; other solutions of compounds were also prepared in 50 % DMSO (prepared in 50 mM TBS, pH 7.4). The final concentration of DMSO in thrombin samples was 5 %. To prepare thrombin control samples, the same volume of solvent (50 % DMSO prepared in 50 mM TBS, pH 7.4) was added as in the case of the compound volume and warmed for 10 min to 37 °C.\nThe reactions incubated at 37 °C were stopped after 5, 15 and 30 min by adding 150 μl of lysis buffer (0.125 M Tris/HCl, 4 % SDS, 8 M urea, 10 % β-mercaptoethanol, pH 6.8). Samples were subjected to SDS-PAGE (polyacrylamide concentration—7.5 %) using Mini-Protean Electrophoresis Cell (Bio-Rad, Hercules, CA). Proteins were stained with Coomassie Brilliant Blue R250 (CBB)."}, "human thrombin [5]": {"test_system": "human thrombin", "experiment": "Thrombin-induced platelet aggregation (turbidimetric)", "assay_type": "cell-based", "settings": "compound 50 μM preincubated with thrombin", "protocol": "Blood samples in 0.32 % sodium citrate from healthy volunteers without cardiovascular disorders were collected, untreated with antiplatelet drugs. […] Platelets were isolated from PRP using BSA–Sepharose 2B gel filtration method according to Walkowiak et al. ([2000]). […] In these preparations, to nine volumes of thrombin one volume of polyphenolic compounds was added (final thrombin concentration was 15.8 nM). All tested compounds were dissolved in 50 % DMSO to the initial concentration of 10 mM; other solutions of compounds were also prepared in 50 % DMSO (prepared in 50 mM TBS, pH 7.4). […] The platelet aggregation was measured by turbidimetric method (Saluk-Juszczak et al., [2007]) using dual-channel Chrono-log optical aggregometer (Chronolog, USA). […] Platelet suspensions were pre-warmed at 37 °C with stirring."}, "human thrombin [6]": {"target": "T1, human thrombin", "experiment": "Thrombin-induced fibrinogen polymerization", "assay_type": "biochemical", "parameters": "Thrombin, also known as an active plasma coagulation factor II; purchased Sigma-Aldrich Chemical Co. (St. Louis, MO, USA) T7009", "settings": "thrombin preincubated with compound", "protocol": "In these preparations, to nine volumes of thrombin one volume of polyphenolic compounds was added (final thrombin concentration was 15.8 nM). All tested compounds were dissolved in 50 % DMSO to the initial concentration of 10 mM; other solutions of compounds were also prepared in 50 % DMSO (prepared in 50 mM TBS, pH 7.4). […] Polymerization of fibrin was monitored at 595 nm using a 96-well microtiter plate reader. To each reaction well of the microtiter plate, 100 μl of fibrinogen (3 mg/ml) in 50 mM TBS and 5 mM CaCl2, pH 7.4, were added. […] The maximal velocity of the polymerization process (V max, Δm OD/min) for each absorbance curve was determined (Nowak et al., [2007])."}}, "note": "Where two headings read alike, the source gives them in different places.", "data": [{"smiles": "O=c1c(O)c(-c2ccc(O)c(O)c2)oc2cc(O)cc(O)c12", "note": "[Quercetin, quercetin]", "values": [{"measurement": "K A, equilibrium association constant", "setting": "human thrombin [1]", "result": "2.59 × 10^7 M^–1"}, {"measurement": "K A, equilibrium association constant", "setting": "human thrombin [1]; 5 sensorgrams, 50 to 1,000 μM", "result": "2.59e+07", "unit": "M⁻¹"}, {"measurement": "Kd", "setting": "human thrombin [1]; 5 sensorgrams, 50 to 1,000 μM, read-out: K D, equilibrium dissociation constant", "result": 38.7, "unit": "nM"}, {"measurement": "kon", "setting": "human thrombin [1]; 5 sensorgrams, 50 to 1,000 μM, read-out: k a, association rate", "result": 43.2, "unit": "M⁻¹ s⁻¹"}, {"measurement": "koff", "setting": "human thrombin [1]; 5 sensorgrams, 50 to 1,000 μM, read-out: k d, dissociation rate", "result": "1.67e-06", "unit": "s⁻¹"}, {"measurement": "Response (RU)", "setting": "human thrombin [1]; analyte 1,000 μM, thrombin immobilized on CM5 chip", "result": "1,882 RU"}, {"measurement": "k cat", "setting": "human thrombin [2]; compound at IC50 concentration, k cat = V max/E 0, control 29.1", "result": 27.8, "unit": "s⁻¹"}, {"measurement": "Type of inhibition", "setting": "human thrombin [2]; from Lineweaver–Burk curves", "result": "competitive inhibitors"}, {"measurement": "V max of chromogenic substrate hydrolysis by thrombin", "setting": "human thrombin [2]; thrombin incubated with compound at IC50 concentration, control 30.7", "result": "29.4 10^−6 mol/min"}, {"measurement": "K m of chromogenic substrate hydrolysis by thrombin", "setting": "human thrombin [2]; thrombin incubated with compound at IC50 concentration, control 158.7", "result": "633.8 10^−6 M"}, {"measurement": "Concentration with anti-clotting effect (prolonged thrombin time)", "setting": "[3]", "result": "≥ 100", "unit": "µM"}, {"measurement": "Effect on formation of γ–γ chains and α-polymers", "setting": "human thrombin [4]; at IC50 concentration of amidolytic inhibition: cyanidin […], quercetin 1.5 μM", "result": "also inhibited the formation of γ–γ chains and α-polymers"}, {"measurement": "Effect on formation of γ–γ chains and α-polymers", "setting": "human thrombin [4]; ten times IC50: cyanidin […], quercetin 15 μM, silybin 250 μM", "result": "significantly inhibited the formation of γ–γ chains and α-polymers"}, {"measurement": "Platelet aggregation, % of control", "setting": "human thrombin [5]", "result": 4, "unit": "%"}, {"measurement": "Effect on thrombin ability to induce fibrinogen polymerization", "setting": "human thrombin [6]; 10 min 37 °C", "result": "inhibition of thrombin ability to induce fibrinogen polymerization"}, {"measurement": "Concentration causing total inhibition of thrombin activity (fibrin polymerization)", "setting": "human thrombin [6]; Vmax of fibrinogen polymerization at 595 nm", "result": 50, "unit": "µM"}]}]}
